Like-named read-outs stand apart in the source and are kept apart here.

This is an account of results in patent US11116774B2, “Modulators of toll-like receptors for the treatment of HIV” (Gilead Sciences, Inc., priority 2014, dated 2021).

Assay [1] relates to HIV-1 expression in PBMC cultures from HIV-1 infected donors on cART. In words: Induced HIV-1 expression in PBMC cultures from HIV-1 infected donors on cART (Example 208). Format: cell-based, human. As to conditions: Tables 7-11; for fold induction at 0.01 µM / fold induction at 0.156 µM / fold induction at 2.5 µM: Human immunodeficiency virus 1, PBMC; for fold induction at 0.01 µM: read-out: Fold HIV-1 Induction, Geometric Mean, 0.01 μM. As for the experimental part:
Isolated PBMCs were treated with various concentrations (0.1, 1, and 10 μM) of the TLR7 modulating compounds (compounds of Example 4 and Example 49) or dimethyl sulfoxide (DMSO) treated (vehicle control) for 4 to 5 days. The cultures were maintained in the presence of antivirals (elvitegravir and efavirenz at 100 nM each) to prevent viral spread and amplification in order to measure initial virus production (latency reversal) created by the TLR7 modulating compounds. At the end of the incubation period cell-free culture supernatants were harvested and HIV-1 RNA levels were quantified by the COBAS® AmpliPrep/COBAS® TaqMan HIV-1 Test, v2.0 (Roche).
Using the method described above in Example 208, HIV-1 expression in PBMC cultures derived from four additional HIV-1 infected donors on cART were tested in the presence of the compounds of Examples 4, 29, 120, 121, 122, 123, 124, resiquimod, and imiquimod.

Assay [2] relates to polyfunctional proliferating CD8 T cells (CFSE low, IFNg+, TNFa+). In words: Induction of HIV-specific polyfunctional CD8 T cells by combination with an IDO1 inhibitor (Example 217). Format: cell-based, human. On the procedure: PBMCs from 4 HIV-infected donors (Donor IDs 180-183) on suppressive cART were isolated, as described previously, stained with CFSE, and treated with 500 ng/ml 15-mer peptide pools derived from overlapping HIV gag, pol, nef, and env consensus peptides (JPT Peptide Technologies GmbH). PBMC cultures were treated with DMSO or the compound of Example 49 (GS-9620) at 0.1 uM. In some cultures treated with Example 49, the IDO1 small molecule inhibitor, INCB024360, was combined at 2 μM. Cells were incubated at 37° C. for 8 days, then split into duplicate sets and stained in DPBS with LIVE/DEAD Fixable Aqua Dead Cell Stain (Life Technologies). The immune recall response was performed as previously described. FACS was performed on a LSR Fortessa (BD Biosciences) and data analysis was done with FlowJo software (TreeStar). Data was plotted and statistical analysis was done with GraphPad Prism software (GraphPad).

The mark [3] stands for this setting: read-out: Fold HIV-1 Induction, Geometric Mean, 0.156 μM, donors 152-155.
[4] abbreviates: read-out: Fold HIV-1 Induction, Geometric Mean, 2.5 μM, donors 152-155.

As to `COCCOc1cc2c([nH]c(=O)n2Cc2ccc(-c3ccc(CN4CCCC4)cc3)cc2)c(N)n1` [Example 120, 4-amino-6-(2-methoxyethoxy)-1-((4′-(pyrrolidin-1-ylmethyl)-[1,1-biphenyl]-4-yl)methyl)-1H-imidazo[4,5-c]pyridin-2(3H)-one], the “Donors with ≥2-fold HIV-1 Induction” value in assay [1] (0.01 μM), in assay [1] (0.156 μM) and in assay [1] (2.5 μM) was 4 of 4 throughout. Also, the fold induction at 0.01 µM in assay [1] (donors 152-155) worked out at 3.9. In addition, in assay [1] (setting [3]), the fold induction at 0.156 µM worked out at 5.5. Further, in assay [1] (setting [4]), the fold induction at 2.5 µM turned out to be 4.

In the case of `COCCOc1nc(N)c2[nH]c(=O)n(Cc3ccc(-c4ccc(CN5CCCC5)cc4)cc3)c2c1Cl` [Example 121, 4-amino-7-chloro-6-(2-methoxyethoxy)-1-((4′-(pyrrolidin-1-ylmethyl)-[1,1-biphenyl]-4-yl)methyl)-1H-imidazo[4,5-c]pyridin-2(3H)-one], the “Donors with ≥2-fold HIV-1 Induction” value is given as 2 of 4 in assay [1] (0.01 μM), 2 of 4 in assay [1] (0.156 μM) and 4 of 4 in assay [1] (2.5 μM). The fold induction at 0.01 µM in assay [1] (donors 152-155) came to 1.3. In assay [1] (setting [3]), the fold induction at 0.156 µM came out at 1.3. Besides, the fold induction at 2.5 µM in assay [1] (setting [4]) stood at 2.9.

Consider `COCCOc1nc(N)c2nc(O)n(Cc3ccccc3)c2n1` [Example 122, 6-amino-9-benzyl-2-(2-methoxyethoxy)-9H-purin-8-ol, reference compound], for which the “Donors with ≥2-fold HIV-1 Induction” value in assay [1] (0.01 μM) is listed as 3 of 4; in assay [1] (0.156 μM), 3 of 4; in assay [1] (2.5 μM), 4 of 4. Further, the fold induction at 0.01 µM in assay [1] (donors 152-155) was 5. For the same compound, the fold induction at 0.156 µM in assay [1] (setting [3]) was found to be 4.8. Moreover, the fold induction at 2.5 µM in assay [1] (setting [4]) was found to be 6.9.

On to `CCc1nc2c(N)nc3ccccc3c2n1CCCCNS(C)(=O)=O` [Example 123, N-(4-(4-amino-2-ethyl-1H-imidazo[4,5-c]quinolin-1-yl)butyl)methane sulfonamide, reference compound], for which the entries for the “Donors with ≥2-fold HIV-1 Induction” value in assay [1] (0.01 μM), in assay [1] (0.156 μM) and in assay [1] (2.5 μM) were 2 of 4, 3 of 4 and 4 of 4, respectively. For the same compound, the fold induction at 2.5 µM is 3.3 in assay [1] (96 h, read-out: Fold HIV-1 Induction, 2.5 μM, per donor, supernatants Day 4, PBMCs added to pre-plated compounds) and 5.1 in assay [1] (setting [4]). Also, in assay [1] (donors 152-155), the fold induction at 0.01 µM came out at 1.9. The fold induction at 0.156 µM in assay [1] (setting [3]) is 3.4.

As for `Nc1nc(=O)c2sc(=O)n([C@@H]3O[C@H](CO)C[C@H]3O)c2[nH]1` [Example 124, 5-amino-3-((2R,3R,5S)-3-hydroxy-5-(hydroxymethyl)tetrahydrofuran-2-yl)thiazolo[4,5-d]pyrimidine-2,7(3H,4H)-dione, reference compound], the “Donors with ≥2-fold HIV-1 Induction” value in assay [1] (0.01 μM) is 3 of 4; in assay [1] (0.156 μM) it was 2 of 4; in assay [1] (2.5 μM), 2 of 4. Also, in assay [1] (donors 152-155), the fold induction at 0.01 µM is 3.7. For the same compound, in assay [1] (setting [3]), the fold induction at 0.156 µM came to 1.8. In assay [1] (setting [4]), the fold induction at 2.5 µM was 1.6.

Turning to `NS(=O)(=O)NCCNc1nonc1C(=NO)Nc1ccc(F)c(Br)c1` [INCB024360, reference compound], the “further increase of mean level of polyfunctional proliferating CD8 T cells (TLR7 only vs. TLR7+IDO1)” value in assay [2] amounted to 70%.

Consider `CC(C)Cn1cnc2c(N)nc3ccccc3c21` [imiquimod, reference compound], for which the “Donors with ≥2-fold HIV-1 Induction” value was 4 of 4 in assay [1] (0.01 μM), 4 of 4 in assay [1] (0.156 μM) and 3 of 4 in assay [1] (2.5 μM). The fold induction at 0.156 µM in assay [1] (96 h, read-out: Fold HIV-1 Induction, 0.156 μM, per donor, supernatants Day 4, PBMCs added to pre-plated compounds) is 4.4; in assay [1] (setting [3]) it was 5.4. In assay [1] (donors 152-155), the fold induction at 0.01 µM worked out at 4.3. The fold induction at 2.5 µM in assay [1] (setting [4]) was found to be 4.8.

Consider `CCOCc1nc2c(N)nc3ccccc3c2n1CC(C)(C)O` [resiquimod, reference compound], for which the fold induction at 0.01 µM in assay [1] (donors 152-155) was 5. Also, the fold induction at 0.156 µM in assay [1] (setting [3]) was 6.9. Besides, in assay [1] (setting [4]), the fold induction at 2.5 µM came out at 7.4.
